Experimental data reported in US20250059174A1, “Pharmaceutical Compounds and Compositions as C-Kit Kinase Inhibitors” (Enanta Pharmaceuticals, Inc., priority 2023, published 2025).

What was measured:
[1] = target: Recombinant human c-KIT kinase (Homo sapiens (Human), UniProt P10721); experiment: c-KIT kinase chemiluminescence assay (ADP-Glo); type: biochemical; settings: ATP 50 μM
Procedure: The c-KIT Kinase Enzyme System (V4498) and ADP-Glo™ Kinase Assay kit (V6930) were purchased from Promega (Madison, WI). DMSO (D2650) was purchased from Sigma-Aldrich (Burlington, MA).
Kinase Reaction: The kinase assay was based on the recommended protocol by c-KIT Kinase Enzyme System from Promega. Recombinant human c-KIT kinase in 3 μL of assay buffer (40 mM Tris pH 7.5, 20 mM MgCl2, 0.1 mg/mL BSA and 50 μM DTT) was added to the test or high control wells and 3 μL of assay buffer was added to the low control wells. The microplate was centrifuged at 800 rotations per minute (rpm) for 60 s and incubated at room temperature (RT) for 30 min. Next, 2 μL of buffered ATP and polyEY substrate solution was added to all wells. The microplate was centrifuged at 800 rpm for 60 s and incubated at RT for 2 h.
ADP detection with ADP-Glo™ Kinase Assay: After the kinase reaction incubation, 5 μL of ADP-Glo™ reagent was added to all wells. The microplate was centrifuged at 800 rpm for 60 s and incubated at RT for 40 min. Ten microliter (10 μL) of Kinase Detection Reagent (Luciferin-Luciferase system) was then added to all wells. The microplate was centrifuged at 800 rpm for 60 s and incubated at RT for 60 min. Kinase activity was measured as increase in luminescence at RT in an Envision plate reader equipped with 560 nm filters and operating in endpoint mode. Data Analysis: Endpoint chemiluminescence from high and low control wells were used to calculate normalized c-KIT activity at various concentrations of test compounds. The normalized activities were fitted to inhibitor-versus-normalized response fit in GraphPad Prism 7 to determine half-maximal inhibitory concentration (IC50) and hill coefficient values (H).
Where I is the inhibitor concentration and H is the Hill coefficient.

M-07e cells = experiment: M-07e cellular assay (SCF-mediated cell proliferation); type: cell-based; settings: Homo sapiens, 72 hours, CellTiter Glo
Procedure: M-07e cells (Creative Bioarray, CSC-C0249) which endogenously express human c-KIT were used to evaluate the effect of compounds on stem cell factor (SCF)-mediated cell proliferation. M-07e cells were cultured in growth media (RPMI+10% FBS+1% penicillin/streptomycin+10 ng/mL GM-CSF) at 5E5-1.5E6 cells/mL, replenishing media every 3-4 days. 1.5E4 cells were seeded per well in 384 well tissue culture treated plates in 20 μL assay media (RPMI+[…]+1% penicillin/streptomycin) without growth factor stimulation and incubated at 37° C. in a CO2 humidity-controlled incubator. Twenty-four hours later, three-fold serially diluted test compounds in media containing SCF (at the previously determined EC90) were added to the plated M-07e cells and incubated for an additional 72 hours. Cell viability was determined by adding 25 μL CellTiter Glo (Promega) to the cells and the luminescence was measured using a Perkin Elmer Envision plate reader. The EC50 was determined using GraphPad Prism. Percent cell growth was determined after normalizing the curve to the mean RLU high control (no compound control wells) at 100% and the mean RLU low control (no SCF control wells) at 0%.

Recombinant human c-KIT kinase, sequence (P10721 26-976): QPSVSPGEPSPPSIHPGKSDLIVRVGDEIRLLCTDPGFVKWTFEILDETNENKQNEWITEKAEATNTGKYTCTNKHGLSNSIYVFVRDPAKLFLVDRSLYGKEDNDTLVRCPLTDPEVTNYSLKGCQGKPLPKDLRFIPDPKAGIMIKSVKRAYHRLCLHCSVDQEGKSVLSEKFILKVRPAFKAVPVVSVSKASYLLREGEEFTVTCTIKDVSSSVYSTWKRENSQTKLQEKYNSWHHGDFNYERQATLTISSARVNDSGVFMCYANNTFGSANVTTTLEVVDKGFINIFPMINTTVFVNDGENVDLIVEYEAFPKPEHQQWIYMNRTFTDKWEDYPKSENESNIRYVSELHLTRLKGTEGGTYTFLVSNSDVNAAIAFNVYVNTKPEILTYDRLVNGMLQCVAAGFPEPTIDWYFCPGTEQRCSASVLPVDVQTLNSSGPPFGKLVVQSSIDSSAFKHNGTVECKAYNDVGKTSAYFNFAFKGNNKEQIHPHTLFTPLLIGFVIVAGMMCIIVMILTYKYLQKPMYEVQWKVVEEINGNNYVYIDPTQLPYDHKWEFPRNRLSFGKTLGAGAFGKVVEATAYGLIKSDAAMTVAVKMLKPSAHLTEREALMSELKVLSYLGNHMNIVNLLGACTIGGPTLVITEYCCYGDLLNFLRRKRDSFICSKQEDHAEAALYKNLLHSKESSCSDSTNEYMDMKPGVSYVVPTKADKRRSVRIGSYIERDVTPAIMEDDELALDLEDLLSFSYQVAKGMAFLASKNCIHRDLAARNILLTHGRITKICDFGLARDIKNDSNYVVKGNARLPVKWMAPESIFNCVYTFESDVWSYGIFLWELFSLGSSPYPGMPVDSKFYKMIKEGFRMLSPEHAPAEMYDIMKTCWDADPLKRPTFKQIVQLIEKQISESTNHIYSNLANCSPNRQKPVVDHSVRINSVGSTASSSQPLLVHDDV

Compound | IC50 [1] [nM] | EC50 (M-07e cells) [nM]
Cc1ccc(-c2noc([C@H]3C[C@@H]3F)n2)cc1NC(=O)c1cnn(-c2cccc(N)c2)c1 [Example 74] | 100 to 1000 | > 1000
Cc1ccc(-c2noc([C@H]3C[C@@H]3F)n2)cc1NC(=O)c1cnc(-c2ccccc2)o1 [Example 85] | 100 to 1000 | 100 to 1000
Cc1ccc(-c2noc([C@H]3C[C@@H]3F)n2)cc1NC(=O)c1cnn2ccc(NC(=O)OC(C)(C)C)cc12 [Example 90] | 100 to 1000 | 100 to 1000
Cc1ccc(-c2noc([C@H]3C[C@@H]3F)n2)cc1NC(=O)c1cnn2ccc(N)cc12 [Example 92] | < 100 | < 100
Cc1ccc(-c2noc([C@H]3C[C@@H]3F)n2)cc1NC(=O)c1cnn2ccc(NC(=O)c3ccccc3)cc12 [Example 93] | 100 to 1000 | 100 to 1000
Cc1ccc(-c2noc([C@H]3C[C@@H]3F)n2)cc1NC(=O)c1cnn2ccc(NC(=O)OC3CC3)cc12 [Example 94] | 100 to 1000 | 100 to 1000
Cc1ccc(-c2noc([C@H]3C[C@@H]3F)n2)cc1NC(=O)c1cnn2ccc(NC(=O)OCc3ccccc3)cc12 [Example 95] | 100 to 1000 | 100 to 1000
Cc1ccc(-c2noc([C@H]3C[C@@H]3F)n2)cc1NC(=O)c1cnn2ccc(NC(=O)NC3CC3)cc12 [Example 96] | 100 to 1000 | 100 to 1000
Cc1ccc(-c2noc([C@H]3C[C@@H]3F)n2)cc1NC(=O)c1cn2ncsc2n1 [Example 97] | > 1000 | > 1000
Cc1nc(Nc2ncc(C(=O)Nc3cc(-c4noc([C@H]5C[C@@H]5F)n4)ccc3C)s2)cc(N2CC3(COC3)C2)n1 [Example 98-1] | < 100 | < 100
CC(=O)NC1CN(c2ncc(C(=O)Nc3cc(-c4noc([C@H]5C[C@@H]5F)n4)ccc3C)s2)C1 [Example 98-2] | > 1000 | > 1000
Cc1ccc(-c2noc([C@H]3C[C@@H]3F)n2)cc1NC(=O)c1cnc(N2CC(C(=O)OC(C)(C)C)C2)s1 [Example 98-3] | > 1000 | > 1000
Cc1ccc(-c2noc([C@H]3C[C@@H]3F)n2)cc1NC(=O)c1cnc(N2CC(C(=O)NC3CC3)C2)s1 [Example 98-5] | > 1000 | > 1000
Cc1ccc(-c2noc([C@H]3C[C@@H]3F)n2)cc1NC(=O)c1ccc2c(c1)CC(=O)N2 [Example 98-6] | > 1000 | > 1000
Cc1ccc(-c2noc([C@H]3C[C@@H]3F)n2)cc1NC(=O)c1ccc2[nH]c(=O)[nH]c2c1 [Example 98-7] | > 1000 | > 1000
Cc1ccc(-c2noc([C@H]3C[C@@H]3F)n2)cc1NC(=O)c1cnc(N2CCC3(CCC(=O)N3)CC2)s1 [Example 98-8] | > 1000 | > 1000
Cc1ccc(-c2noc([C@H]3C[C@@H]3F)n2)cc1NC(=O)c1cnn(-c2ccccc2)c1C [Example 98] | > 1000 | > 1000
Cc1ccc(-c2noc([C@H]3C[C@@H]3F)n2)cc1NC(=O)c1cnc2n1CCc1ccccc1-2 [Example 100] | < 100 | 100 to 1000
Cc1ccc(-c2noc([C@H]3C[C@@H]3F)n2)cc1NC(=O)c1cnc2n1C(C)c1ccccc1-2 (some centres unmarked) [Example 102] | < 100 | 100 to 1000
C=CCC1c2ccccc2-c2ncc(C(=O)Nc3cc(-c4noc([C@H]5C[C@@H]5F)n4)ccc3C)n21 (some centres unmarked) [Example 103] | 100 to 1000 | 100 to 1000
Cc1ccc(-c2noc([C@H]3C[C@@H]3F)n2)cc1NC(=O)c1cnc2n1C(Cc1ccccc1)c1ccccc1-2 (some centres unmarked) [Example 104] | > 1000 | > 1000
Cc1ccc(-c2noc([C@H]3C[C@@H]3F)n2)cc1NC(=O)c1cnc2n1C(C)(C)c1ccccc1-2 [Example 105] | 100 to 1000 | 100 to 1000
C#Cc1ccn2ncc(C(=O)Nc3cc(-c4noc([C@H]5C[C@@H]5F)n4)ccc3C)c2c1 [Example 108] | < 100 | < 100

Compound | IC50 [1] [nM] | EC50 (M-07e cells) [nM]
Cc1ccc(-c2noc([C@H]3C[C@@H]3F)n2)cc1NC(=O)c1cnn2cc(-c3cn(CCO)nn3)ccc12 [Example 109] | < 100 | < 100
Cc1ccc(-c2noc([C@H]3C[C@@H]3F)n2)cc1NC(=O)c1cnn2ccc(-c3cn(CCO)nn3)cc12 [Example 110] | 100 to 1000 | < 100
Cc1ccc(-c2noc([C@H]3C[C@@H]3F)n2)cc1NC(=O)c1cnn2ccc(-c3cn(C(F)F)nn3)cc12 [Example 111] | 100 to 1000 | < 100
Cc1ccc(-c2noc([C@H]3C[C@@H]3F)n2)cc1NC(=O)c1cnn2cc(-c3cn(CC(F)(F)F)nn3)ccc12 [Example 112] | < 100 | < 100
Cc1ccc(-c2noc([C@H]3C[C@@H]3F)n2)cc1NC(=O)c1cnn2cc(-c3cn(C(F)(F)F)nn3)ccc12 [Example 113] | < 100 | < 100
Cc1ccc(-c2noc([C@H]3C[C@@H]3F)n2)cc1NC(=O)c1cnn2cc(-c3cn(C4CC4)nn3)ccc12 [Example 114] | < 100 | < 100
Cc1ccc(-c2noc([C@H]3C[C@@H]3F)n2)cc1NC(=O)c1cnn2cc(-c3cn(C4CC(F)(F)C4)nn3)ccc12 [Example 115] | < 100 | < 100
COCCn1cc(-c2ccc3c(C(=O)Nc4cc(-c5noc([C@H]6C[C@@H]6F)n5)ccc4C)cnn3c2)nn1 [Example 116] | < 100 | < 100
Cc1ccc(-c2noc([C@H]3C[C@@H]3F)n2)cc1NC(=O)c1cnn2cc(-c3cn(C[C@H](C)O)nn3)ccc12 [Example 117] | < 100 | < 100
Cc1ccc(-c2noc([C@H]3C[C@@H]3F)n2)cc1NC(=O)c1cnn2cc(-c3cn(CC(C)(C)O)nn3)ccc12 [Example 118] | < 100 | < 100
Cc1ccc(-c2noc([C@H]3C[C@@H]3F)n2)cc1NC(=O)c1cnn2cc(-c3cn(CC4(C)COC4)nn3)ccc12 [Example 119] | < 100 | < 100
Cc1ccc(-c2noc([C@H]3C[C@@H]3F)n2)cc1NC(=O)c1cnn2cc(-c3cnnn3CCO)ccc12 [Example 120] | 100 to 1000 | 100 to 1000
Cc1ccc(-c2noc([C@H]3C[C@@H]3F)n2)cc1NC(=O)c1cnn2cc(-c3cnnn3CC(F)(F)F)ccc12 [Example 121] | > 1000 | > 1000
Cc1ccc(-c2noc([C@H]3C[C@@H]3F)n2)cc1NC(=O)c1cnn2ccc(-c3cn(CC(C)(C)O)nn3)cc12 [Example 122] | < 100 | < 100
Cc1ccc(-c2noc([C@H]3C[C@@H]3F)n2)cc1NC(=O)c1cnn2cc(-c3cn(C45CC(C4)C5)nn3)ccc12 [Example 123] | 100 to 1000 | < 100
Cc1ccc(-c2noc([C@H]3C[C@@H]3F)n2)cc1NC(=O)c1cnn2ccc(-c3cn(C45CC(F)(C4)C5)nn3)cc12 [Example 124] | < 100 | < 100
Cc1ccc(-c2noc([C@H]3C[C@@H]3F)n2)cc1NC(=O)c1cnn2cc(-c3cn(C45CC(F)(C4)C5)nn3)ccc12 [Example 125] | 100 to 1000 | < 100
Cc1ccc(-c2noc([C@H]3C[C@@H]3F)n2)cc1NC(=O)c1cnn2ccc(-c3cn(C45CC(C(F)(F)F)(C4)C5)nn3)cc12 [Example 126] | < 100 | < 100
Cc1ccc(-c2noc([C@H]3C[C@@H]3F)n2)cc1NC(=O)c1cnn2ccc(C#N)cc12 [Example 127] | 100 to 1000 | 100 to 1000
Cc1ccc(-c2noc([C@H]3C[C@@H]3F)n2)cc1NC(=O)c1cnn2cc(C#N)ccc12 [Example 128] | > 1000 | 100 to 1000
Cc1ccc(-c2noc([C@H]3C[C@@H]3F)n2)cc1NC(=O)c1cnn2ccc(-c3nn[nH]n3)cc12 [Example 129] | 100 to 1000 | > 1000
Cc1ccc(-c2noc([C@H]3C[C@@H]3F)n2)cc1NC(=O)c1cnn2cc(-c3nn[nH]n3)ccc12 [Example 130] | 100 to 1000 | > 1000
Cc1ccc(-c2noc([C@H]3C[C@@H]3F)n2)cc1NC(=O)c1cnn2ccc(-c3nnn(C)n3)cc12 [Example 131] | 100 to 1000 | < 100
